# Source: ChEMBL document CHEMBL1153162, “Total synthesis and biological evaluation of methylgerambullone” (2010)
# Legend:
# Settings in all cases: Cavia porcellus
# Ileum [1] = assay: […] activity in longitudinal smooth muscle of guinea pig ileum assessed as inhibition of acetylcholine-induced contraction at 100 mg/L; type: functional
# Ileum [2] = assay: […] activity in longitudinal smooth muscle of guinea pig ileum assessed as inhibition of acetylcholine-induced contraction; type: functional, tissue-based
# Ileum [3] = assay: […] activity in longitudinal smooth muscle of guinea pig ileum assessed as inhibition of acetylcholine-induced contraction at 30 mg/L; type: functional
# Ileum [4] = assay: […] activity in longitudinal smooth muscle of guinea pig ileum assessed as inhibition of acetylcholine-induced contraction at 60 mg/L; type: functional
compound,measurement,setting,value
CC(C)=CC(=O)C/C(C)=C/COc1ccc(CCN(C)C(=O)/C=C/S(C)(=O)=O)cc1 [METHYLGERAMBULLONE],inhibition at 100 µg/mL,Ileum [1],78.7%
same,Activity,Ileum [2],Dose-dependent effect
same,inhibition at 30 µg/mL,Ileum [3],45.3%
same,inhibition at 60 µg/mL,Ileum [4],70%
